Source: US12180194B2, “Multi-aziridine compound” (Covestro (Netherlands) B.V., priority 2018, dated 2024)

How the values were obtained:
Bscl2-GFP = assay: ToxTracker genotoxicity assay, Bscl2-GFP reporter induction; settings: for Genotoxicity test, With S9 rat liver extract, Bscl 2, 10 / Genotoxicity test, Without S9 rat liver extract, Bscl 2, 10: GFP induction vs vehicle at 10% cytotoxicity; for Genotoxicity test, With S9 rat liver extract, Bscl 2, 10 / Genotoxicity test, With S9 rat liver extract, Bscl 2, 25 / Genotoxicity test, With S9 rat liver extract, Bscl 2, 50: 3 h exposure with S9, 24 h recovery; for Genotoxicity test, Without S9 rat liver extract, Bscl 2, 10 / Genotoxicity test, Without S9 rat liver extract, Bscl 2, 25 / Genotoxicity test, Without S9 rat liver extract, Bscl 2, 50: 24 h exposure, no S9; for Genotoxicity test, With S9 rat liver extract, Bscl 2, 25 / Genotoxicity test, Without S9 rat liver extract, Bscl 2, 25: GFP induction vs vehicle at 25% cytotoxicity; for Genotoxicity test, With S9 rat liver extract, Bscl 2, 50 / Genotoxicity test, Without S9 rat liver extract, Bscl 2, 50: GFP induction vs vehicle at 50% cytotoxicity
Rtkn-GFP = assay: ToxTracker genotoxicity assay, Rtkn-GFP reporter induction; settings: for Genotoxicity test, With S9 rat liver extract, Rtkn, 10 / Genotoxicity test, Without S9 rat liver extract, Rtkn, 10: GFP induction vs vehicle at 10% cytotoxicity; for Genotoxicity test, With S9 rat liver extract, Rtkn, 10 / Genotoxicity test, With S9 rat liver extract, Rtkn, 25 / Genotoxicity test, With S9 rat liver extract, Rtkn, 50: 3 h exposure with S9, 24 h recovery; for Genotoxicity test, Without S9 rat liver extract, Rtkn, 10 / Genotoxicity test, Without S9 rat liver extract, Rtkn, 25 / Genotoxicity test, Without S9 rat liver extract, Rtkn, 50: 24 h exposure, no S9; for Genotoxicity test, With S9 rat liver extract, Rtkn, 25 / Genotoxicity test, Without S9 rat liver extract, Rtkn, 25: GFP induction vs vehicle at 25% cytotoxicity; for Genotoxicity test, With S9 rat liver extract, Rtkn, 50 / Genotoxicity test, Without S9 rat liver extract, Rtkn, 50: GFP induction vs vehicle at 50% cytotoxicity

| SMILES | Genotoxicity test, With S9 rat liver extract, Bscl 2, 10 (Bscl2-GFP) | Genotoxicity test, Without S9 rat liver extract, Bscl 2, 10 (Bscl2-GFP) | Genotoxicity test, With S9 rat liver extract, Bscl 2, 25 (Bscl2-GFP) | Genotoxicity test, Without S9 rat liver extract, Bscl 2, 25 (Bscl2-GFP) | Genotoxicity test, With S9 rat liver extract, Bscl 2, 50 (Bscl2-GFP) | Genotoxicity test, Without S9 rat liver extract, Bscl 2, 50 (Bscl2-GFP) | Genotoxicity test, With S9 rat liver extract, Rtkn, 10 (Rtkn-GFP) | Genotoxicity test, Without S9 rat liver extract, Rtkn, 10 (Rtkn-GFP) | Genotoxicity test, With S9 rat liver extract, Rtkn, 25 (Rtkn-GFP) | Genotoxicity test, Without S9 rat liver extract, Rtkn, 25 (Rtkn-GFP) | Genotoxicity test, With S9 rat liver extract, Rtkn, 50 (Rtkn-GFP) | Genotoxicity test, Without S9 rat liver extract, Rtkn, 50 (Rtkn-GFP) |
| --- | --- | --- | --- | --- | --- | --- | --- | --- | --- | --- | --- | --- |
| CCCCOCC(CN1CC1C)OC(=O)NCCCCCCNC(=O)OC(COCCCC)CN1CC1C (stereo not drawn) [Comp. Ex. 10, reference compound] | 1.3 fold | 1.3 fold | 1.5 fold | 1.5 fold | 1.5 fold | 1.6 fold | 1.5 fold | 1.2 fold | 2.3 fold | 1.9 fold | 2.2 fold | 1.9 fold |
| CCCCCCCCCC(=O)OCC(CN1CC1C)OC(=O)NC(C)(C)c1cccc(C(C)(C)NC(=O)OC(COC(=O)CCCCCCCCC)CN2CC2C)c1 (stereo not drawn) [Ex. 22] | 1.2 fold | 1.0 fold | 1.2 fold | 1.0 fold | 1.2 fold | 0.9 fold | 1.1 fold | 1.0 fold | 1.1 fold | 1.0 fold | 1.0 fold | 1.0 fold |
| CCCCCCCCCC(=O)OCC(CN1CC1C)OC(=O)NCCCCCCn1c(=O)n(CCCCCCNC(=O)OC(COC(=O)CCCCCCCCC)CN2CC2C)c(=O)n(CCCCCCNC(=O)OC(COC(=O)CCCCCCCCC)CN2CC2C)c1=O (stereo not drawn) [Ex. 24] | 1.0 fold | 1.1 fold | 1.1 fold | 1.2 fold | 1.1 fold | 1.0 fold | 1.1 fold | 1.1 fold | 1.1 fold | 1.2 fold | 1.2 fold | 1.0 fold |
| CCCCOCC(CN1CC1C)OC(=O)NCCCCCCN1C(=O)N(CCCCCCNC(=O)OC(COCCCC)CN2CC2C)C1=O (stereo not drawn) [Ex. 13] | 1.2 fold | 1.1 fold | 1.2 fold | 1.3 fold |  |  | 1.4 fold | 1.1 fold | 1.6 fold | 1.2 fold |  |  |
| CCCCC(CC)COCC(CN1CC1C)OC(=O)NCCCCCCn1c(=O)n(CCCCCCNC(=O)OC(COCC(CC)CCCC)CN2CC2C)c(=O)n(CCCCCCNC(=O)OC(COCC(CC)CCCC)CN2CC2C)c1=O (stereo not drawn) [Ex. 20] | 0.9 fold | 1.0 fold | 0.8 fold | 1.0 fold | 0.7 fold | 0.7 fold | 1.0 fold | 1.1 fold | 1.1 fold | 1.3 fold | 1.1 fold | 1.2 fold |
| CCCCOCC(CN1CC1C)OC(=O)NCCCCCCn1c(=O)n(CCCCCCNC(=O)OC(COCCCC)CN2CC2C)c(=O)n(CCCCCCNC(=O)OC(COCCCC)CN2CC2C)c1=O (stereo not drawn) [Ex. 14] | 1.0 fold | 1.1 fold | 1.0 fold | 1.1 fold |  | 1.1 fold | 0.9 fold | 0.8 fold | 0.8 fold | 0.8 fold | 0.6 fold | 0.6 fold |
| Cc1ccccc1OCC(CN1CC1C)OC(=O)NCCCCCCn1c(=O)n(CCCCCCNC(=O)OC(COc2ccccc2C)CN2CC2C)c(=O)n(CCCCCCNC(=O)OC(COc2ccccc2C)CN2CC2C)c1=O (stereo not drawn) [Ex. 21] | 1.0 fold | 1.1 fold | 1.3 fold | 1.2 fold | 1.4 fold | 1.6 fold | 1.2 fold | 1.2 fold | 1.4 fold | 1.3 fold | 1.5 fold | 1.5 fold |
| CCCCCCCCCC(=O)OCC(CN1CC1C)OC(=O)NC1CCC(CC2CCC(NC(=O)OC(COC(=O)CCCCCCCCC)CN3CC3C)CC2)CC1 (stereo not drawn) [Ex. 23] | 1.1 fold | 1.1 fold | 1.1 fold | 1.2 fold | 1.1 fold | 1.2 fold | 1.0 fold | 1.1 fold | 1.2 fold | 1.2 fold | 1.2 fold | 1.1 fold |
| CC(CN1CC1C)OC(=O)NCCCCCC/N=c1\oc(=O)n(CCCCCCNC(=O)OC(C)CN2CC2C)c(=O)n1CCCCCCNC(=O)OC(C)CN1CC1C (stereo not drawn) [Ex. 2] | 1.0 fold | 1.1 fold |  | 1.1 fold |  | 0.9 fold | 1.1 fold | 1.1 fold |  | 1.0 fold |  | 0.9 fold |
| CC(CN1CC1C)OC(=O)NCC1(C)CC(NC(=O)OC(C)CN2CC2C)CC(C)(C)C1 (stereo not drawn) [Comp. Ex. 7, reference compound] | 1.2 fold | 1.2 fold | 1.6 fold | 1.6 fold | 1.7 fold | 2.4 fold | 1.6 fold | 1.6 fold | 2.7 fold | 2.5 fold | 3.5 fold | 3.8 fold |
| CC(CN1CC1C)OC(=O)NCCCCCCNC(=O)OC(C)CN1CC1C (stereo not drawn) [Comp. Ex. 6, reference compound] | 1.4 fold | 1.4 fold | 2.1 fold | 2.0 fold | 2.3 fold | 2.0 fold | 2.2 fold | 2.1 fold | 3.4 fold | 3.1 fold | 2.1 fold | 3.1 fold |
| CC(OC(=O)NCCCCCCn1c(=O)n(CCCCCCNC(=O)OC(C)C(C)N2CC2C)c(=O)n(CCCCCCNC(=O)OC(C)C(C)N2CC2C)c1=O)C(C)N1CC1C (stereo not drawn) [Ex. 8] |  |  |  |  |  |  | 1.3 fold | 1.2 fold | 1.5 fold | 1.4 fold | 1.3 fold | 1.4 fold |
| CC(CN1CC1C)OC(=O)NCCCCCCn1c(=O)n(CCCCCCNC(=O)OC(C)CN2CC2C)c(=O)n(CCCCCCNC(=O)OC(C)CN2CC2C)c1=O (stereo not drawn) [Ex. 1] |  |  |  |  |  |  | 1.2 fold | 1.2 fold | 1.1 fold | 1.2 fold | 0.9 fold | 1.4 fold |
